This note sets out measurements from EP0641792A1, “1,2-Dithiole derivatives and therapeutic agents containing them” (MITSUI TOATSU CHEMICALS, Inc., priority 1993, dated 1995).

In series [1] the test system is peroxylipid. Kind of series: Inhibitory action for formation of peroxylipid (Evaluation Example 1; MDA, thiobarbituric acid method). The following applies: rat brain homogenate, 37°C for 60 minutes; test compound 10⁻⁴ M; n=2. Type of series: biochemical. Here is the method: (§1) Male SD rats of 7-10 week age were anesthetized with pentobarbital and then subjected to dehematization. Thereafter, their brains were enucleated. The brain tissues were homogenized with a phosphate buffer solution with ice-cooling. Each of the 5% homogenates was incubated at 37°C for 60 minutes to form malondialdehyde (MDA). The amount of MDA was determined by measuring the absorbance at 535 nm according to the thiobarbituric acid method. Using this MDA amount (a) and a control value (b) (a MDA amount when no test compound was added), the inhibition (%) for formation of peroxylipid, of test compound was calculated from the following formula. Inhibition (%) for formation of peroxylipid = [(b-a)/b]x100 [formula] Each test compound was added to the homogenate before the incubation.
(§2) Incidentally, the concentration of each test compound was 10⁻⁴ M, and the number of rats used for each test compound was n=2.

Series [2] in a line: Solubility in water (Test Example 1). Type of series: physicochemical. The following applies: 5% aqueous glucose solution, saline or isotonic. Here is the method:
(§3) Solubility in 5% aqueous glucose solution was measured.

The subject of series [3] is peroxylipid. Description: Inhibitory action for formation of peroxylipid (Evaluation Example 4; MDA, thiobarbituric acid method). The class given is biochemical. The conditions noted are these: rat brain homogenate, 37°C for 60 minutes; test compound 10⁻⁴ M; n=2. Here is the method: as §1, §2
The test system of series [4] is Male SD rats. Kind of series: Inhibitory action for disappearance of enzyme in myocardial cells after ischemia and reperfusion (Evaluation Example 6). Type of series: in vivo, rat. The conditions noted are these: for Mortality (%) / CPK activity (U/mg protein) (Non-ischemia territory)-(ischemia and reperfusion territory): 1.0 mg/kg intravenously, ligation 20 minutes, reperfusion 2 hours; for CPK activity (U/mg protein) (Non-ischemia territory)-(ischemia and reperfusion territory): left ventricle, average value ± standard error. The method, then: Male SD rats of 7-12 week age were anesthetized with pentobarbital and subjected to thoracotomy under artificial respiration. The left anterior descending coronary artery of each rat was ligated for 20 minutes and then subjected to reperfusion for 2 hours. Then, the heart of each rat was enucleated and the left ventricle was separated. The left ventricle was homogenized to measure the activity of creatine phosphokinase (CPK) remaining in the ventricle. Each test compound was intravenously administered 5 minutes before the obstruction of coronary artery. For comparison, the same evaluation was conducted also on the 4-(4-methoxy-3-sulfophenyl)-5-phenyl-3H-1,2-dithiole-3-thione sodium salt described in Bull. […] Chim. […] In Table 18 are shown the differences in CPK activity between non-ischemia territory and ischemia and reperfusion territory of left ventricle, of test compounds and control.
In Table 18, CPK activity indicates (average value ± standard error), and n indicates the number of tested rats.

Series [5] has as its system Male SD rats. Kind of series: Inhibitory action of reperfusion arrhythmia (Evaluation Example 5; coronary artery ligation 5 minutes, reperfusion 10 minutes). The following applies: 1.0 mg/kg intravenously 5 minutes before obstruction of coronary artery. Type of series: in vivo, rat. Here is the method: (§4) Male SD rats of 8-12 week age were anesthetized with pentobarbital and subjected to thoracotomy under artificial respiration. The left anterior descending coronary artery of each rat was ligated for 5 minutes and then subjected to reperfusion for 10 minutes. An electrocardiograph in standard bipolar limb lead II was recorded for each rat to examine the occurrence of ventricular arrhythmia. Each test compound was intravenously administered 5 minutes before the obstruction of coronary artery. For comparison, the same evaluation was conducted also on the 5-(4-methoxy-3-sulfophenyl)-3H-1,2-dithiole-3-thione sodium salt described in Eur. J. Med. Chem. 15, 405 (1980). [drawing 95]

Series [6] has as its system Male SD rats. Kind of series: Inhibitory action for reperfusion arrhythmia (Evaluation Example 2; coronary artery ligation 5 minutes, reperfusion 10 minutes). Type of series: in vivo, rat. The conditions noted are these: 1.0 mg/kg intravenously 5 minutes before obstruction of coronary artery. Here is the method: as §4, with “A” for “Each”, “93]” for “95]”
The subject of series [7] is Male SD rats. Description: Inhibitory action for disappearance of enzyme in myocardial cells after ischemia and reperfusion (Evaluation Example 3). Type of series: in vivo, rat. The following applies: 1.0 mg/kg intravenously; ligation 20 minutes, reperfusion 2 hours; left ventricle; average value ± standard error. The method, then: Male SD rats of 7-12 week age were anesthetized with pentobarbital and subjected to thoracotomy under artificial respiration. The left anterior descending coronary artery of each rat was ligated for 20 minutes and then subjected to reperfusion for 2 hours. Then, the heart of each rat was enucleated and the left ventricle was separated. The left ventricle was homogenized to measure the activity of creatine phosphokinase (CPK) remaining in the ventricle. A test compound was intravenously administered 5 minutes before the obstruction of coronary artery. In Table 15 are shown the differences in CPK activity between non-ischemia territory and ischemia and reperfusion territory of left ventricle, of test compound and control.
In Table 15, CPK activity indicates (average value ± standard error), and n indicates the number of tested rats.

A short description of series [8]: Solubility in water (Test Example 2). The class given is physicochemical. The conditions noted are these: 5% aqueous glucose solution, saline or isotonic. The method, then: as §3

Bounds are passed on as bounds.

With `O=S(=O)([O-])c1ccc2c(c1)-c1ssc(=S)c1CO2.[Na+]` [Production Example 13, 8-sulfo-3H,4H-benzopyrano[4,3-c]-1,2-dithiole-3-thione sodium salt], in the series on peroxylipid [1], the “Inhibition (%)” value turned out to be 100%. In addition, the solubility (usually how much of the substance goes into solution per volume) in series [2] was at least 10000 µg/mL.
The corresponding values for `CCOc1cc2c(cc1S(=O)(=O)[O-])-c1ssc(=S)c1CC2.[Na+]` [Production Example 5, 4,5-dihydro-7-ethoxy-8-sulfo-3H-naphtho-[1,2-c]-1,2-dithiol-3-thione sodium salt] are 100% and at least 10000 µg/mL.
The corresponding values for `COc1cc2c(cc1S(=O)(=O)[O-])OCc1c-2ssc1=S.[Na+]` [Production Example 12, 8-methoxy-7-sulfo-3H,4H-benzopyrano-[4,3-c]-1,2-dithiole-3-thione sodium salt] are 100% and at least 10000 µg/mL.
On to `COc1cc2c(cc1S(=O)(=O)[O-])CCc1c-2ssc1=S.[Na+]` [Production Example 3, 4,5-dihydro-8-methoxy-7-sulfo-3H-naphtho-[1,2-c]-1,2-dithiole-3-thione sodium salt], for which, in the series with peroxylipid [1], the “Inhibition (%)” value is 100%. In series [2], this molecule came in with a solubility of at least 10000 µg/mL.
On to `O=S(=O)([O-])c1ccc(Cc2c(-c3ccccc3)ssc2=S)cc1.[Na+]` [Production Example 39, 5-phenyl-4-(4-sulfobenzyl)-3H-1,2-dithiole-3-thione sodium salt], for which the “Inhibition (%)” value in the series on peroxylipid [3] was determined as 100%. Also, in the series on Male SD rats [4], the “Mortality (%)” value came to 12.5%; the “CPK activity (U/mg protein) (Non-ischemia territory)-(ischemia and reperfusion territory)” value is given as 0.84 ± 0.18 (n=8) U/mg protein. In the series with Male SD rats [5], the “Mortality (%)” value is given as 0/4 (0.0) % and the “VF incidence (VF rats)/(tested rats) (%)” value is recorded as 1/4 (25.0) %.
Turning to `COc1cc2c(cc1S(=O)(=O)[O-])-c1ssc(=S)c1CC2.[Na+]` [Production Example 4, 4,5-dihydro-7-methoxy-8-sulfo-3H-naphtho[1,2-c]-1,2-dithiole-3-thione sodium salt], in the series with peroxylipid [1], the “Inhibition (%)” value was 100%. In the series with Male SD rats [6], the “Mortality (%)” value is recorded as 2/5 (40.0) % and the “VF incidence (VF rats)/(tested rats) (%)” value is recorded as 2/5 (40.0) %. Moreover, the solubility in series [2] is at least 10000 µg/mL. The “CPK activity (U/mg protein) (Non-ischemia territory)-(ischemia and reperfusion territory)” value in the series with Male SD rats [7] is on record as 1.36 ± 0.34 (n=7) U/mg protein.
In the case of `COc1ccc(-c2c(-c3ccc(C)cc3)ssc2=S)cc1S(=O)(=O)[O-].[Na+]` [Production Example 34, 4-(4-methoxy-3-sulfophenyl)-5-(p-tolyl)-3H-1,2-dithiole-3-thione sodium salt], the “Inhibition (%)” value with peroxylipid [3] is 100%. For the same molecule, the solubility in series [8] was at least 10000 µg/mL. Also, in the series with Male SD rats [4], the “Mortality (%)” value turned out to be 40.0%; the “CPK activity (U/mg protein) (Non-ischemia territory)-(ischemia and reperfusion territory)” value is on record as 0.81 ± 0.43 (n=10) U/mg protein. Further, in the series on Male SD rats [5], the “Mortality (%)” value is listed as 2/7 (28.6) % and the “VF incidence (VF rats)/(tested rats) (%)” value is 3/7 (42.9) %.
For the molecule `CCCCCCc1ssc(=S)c1Cc1ccc(OC)c(S(=O)(=O)[O-])c1.[Na+]` [Production Example 26, 5-hexyl-4-(4-methoxy-3-sulfobenzyl)-3H-1,2-dithiole-3-thione sodium salt], the “Inhibition (%)” value in the series with peroxylipid [3] is given as 100%. For the same molecule, the solubility in series [8] was at least 10000 µg/mL. In addition, in the series on Male SD rats [4], the “Mortality (%)” value came to 33.3%; the “CPK activity (U/mg protein) (Non-ischemia territory)-(ischemia and reperfusion territory)” value was 0.70 ± 0.23 (n=9) U/mg protein. For the same molecule, in the series on Male SD rats [5], the “Mortality (%)” value is recorded as 2/6 (33.3) % and the “VF incidence (VF rats)/(tested rats) (%)” value is reported as 3/6 (50.0) %.
Consider `COc1ccc(-c2c(-c3ccccc3)ssc2=S)cc1S(=O)(=O)[O-].[Na+]` [Compound in literature, 4-(4-methoxy-3-sulfophenyl)-5-phenyl-3H-1,2-dithiole-3-thione sodium salt, reference compound], for which the “effect on disappearance of creatine phosphokinase from myocardial cells and on rat mortality” value in the series on Male SD rats [4] (result in words, versus control) is on record as “no significant effect”.
